Experimental data reported in patent US8889126B2, “Methods and compositions for treating neuropathies” (Washington University, priority 2004, dated 2014).
Entries after “also recorded” stand apart in the source; their conditions may differ. Like-named read-outs stand apart in the source and are kept apart here.

Assays:
DRG explant neurons = experiment: in vitro Wallerian degeneration assay: DRG explant cultures, axonal transection by removal of neuronal cell bodies; type: cell-based, mouse; conditions: for effect on NAD-dependent axonal protection (NDAP): neurons cultured in 1 mM NAD, Sirtinol 100 μM, 3AB 20 mM or lentiviral siRNA, assessed 12 to 72 hr after transection; for increase in intact neurites at 48 hours after transection: 1 mM exogenous application; for neurite protection from degeneration: 1 mM in culture media for 24 hours before neurite transection
Experimental: To identify the mechanism of delayed axonal degeneration mediated by the Wld^s protein, we employed an in-vitro Wallerian degeneration model. Primary DRG explant neurons were infected with lentivirus expressing the appropriate proteins, and axons were injured by either removal of the neuronal cell body (transection) or growth in vincristine (toxic).
Mouse DRG explants from E12.5 embryos were cultured in the presence of 1 nM nerve growth factor. Non-neuronal cells were removed from the cultures by adding 5-fluorouracil to the culture medium. Transection of neurites was performed at 10-20 DIV using an 18-gauge needle to remove the neuronal cell bodies. Incubation with β-nicotinamide adenine dinucleotide (Sigma) or Sirtinol (Calbiochem) was performed using conditions indicated in the text or figures.
Lentiviral expression vectors were generated using HEK293T cells as described above. For confirmation of lentivirus-derived protein expression, HEK293T cells were infected with lentivirus and cells were lysed 3 days after infection. These lysates were analyzed by immunoblot to using anti-His tag monoclonal antibody (Qiagen) to detect expression of the respective hexahistidine-tagged proteins. Lentiviral infection of DRG neurons was performed by incubating ˜10^6-10^7 pfu/ml virus with the DRG explant for 24 h beginning 3-7 days prior to axonal transection. The infected neurons were examined under an inverted fluorescent microscope to insure detectable lentivirus-mediated transgene expression in >95% of neurons.
Quantitative analysis of axonal degeneration was performed as previously described (Zhai, et al., Neuron 39:217-25, 2003). Briefly, the cultures were examined using phase contrast microscopy at the indicated times. Axons with a fragmented, non-refractile appearance were designated as “degenerated.” At each time point, at least 200 singly distinguishable axons were blindly scored from several randomly taken images of each culture. Each condition was tested in triplicate explants in each experiment. Results were obtained from 2-4 independent experiments for each condition. Statistical analysis was performed by Student's T test. For calculations of neurite-covered area, digitally captured images from quadruplicate samples of two independent experiments were analyzed using analysis 3.1 software (Soft Imaging System, Lakewood, Colo.).
Cell culture, in vitro axotomy, and quantification of axonal degeneration. Mouse DRG explants from E12.5 embryos were cultured in the DMEM containing 10% FCS and 1 nM nerve growth factor. Non-neuronal cells were removed from the cultures by adding 5-fluorouracil to the culture media. Transection of neurites was performed at 14-21 DIV using an 18-gauge needle to remove the neuronal cell bodies. Lentiviral expression vectors were generated. Lentiviral infection was performed 3-7 days prior to axonal transection for 24 hr. Quantitative analysis of neurite degeneration was performed.

[1] = system: optic nerve (retinal ganglion cell axons); experiment: optic nerve transection after intravitreal injection of NAD biosynthetic substrates, neurofilament immunoreactivity by Western blotting; type: in vivo, rat; conditions: 24 hours before transection, 4 days after transection
Experimental: Administration of NAD biosynthetic substrates and optic Nerve transection. Nam, NMN, NmR, or NAD was dissolved in PBS at the concentration of 100 mM or 1 M. Each of 5 μl solution was injected into left intravitreal component under the anesthesia at a rate of […]. The left optic nerve was transected at 24 hours after intravitreal injection and optic nerve was recovered at indicated time. Optic nerve tissue was homogenized in 100 μl of a buffer containing 100 mM tris-HCl (pH 6.8), 1 SDS, and 1 mM DTT. Fifty μg of protein for each sample was analyzed by the Western blotting using anti-neurofilament antibody 2H3 (Developmental Studies Hybridoma Center) and peroxidase-conjugated secondary antibody (Jackson ImmunoResearch). The degeneration rate was calculated from the ratio of the neurofilament immunoreactivity of transected vs. contralateral nerves.
Transection of optic nerve is an in vivo model which can be used to investigate mechanisms leading to Wallerian degeneration and following retinal ganglion cell (RGC) death observed in human diseases such as glaucoma. In the C57BL/Wlds mouse strain, optic nerve degeneration during Wallerian degeneration after axotomy is dramatically slowed. In addition, intravitreal injection is used for screening of compounds that protect RGC axon from degeneration in vivo and thus we can asses the axon protective effect of each NAD biosynthetic substrates in vivo by intraocular injection of compounds including NAD, NMN, NmR, and Nam. […] We initially injected 5 μl of 100 mM or 1 M NAD solution into left intravitreal compartment. After 24 hours incubation, left optic nerve was transected and control (right) and axotomized (left) optic nerve were collected at 3, 4, and 5 days after transection. Neurofilament immunoreactivity from the axotomized optic nerve was measured and normalized against the value obtained from the right side of the optic nerve.
FIG. 9 illustrates optic nerve transection after intravitreal injection of NAD biosynthetic substrates. In these experiments, NAD biosynthetic substrate NAD, NMN, NmR, or Nam was injected into the intravitreal compartment of a left rat eye and allowed to incorporate in retinal ganglion cells for 24 hours. The left optic nerve was then transected by eye enucleation. The right and left optic nerves were collected at 4 days after transection and analyzed by Western blotting. Optic nerves transected from mice without any treatment prior to axotomy served as negative controls. FIG. 9 presents quantitative analysis data, displaying percentage of remaining neurofilament immunoreactivity from transected optic nerve relative to non-transected controls. Data is presented as percent remaining immunoreactivity±S.D.

Nrk2 = experiment: NAD synthesis enzyme mRNA levels (qRT-PCR) in cultured DRG neurons treated with rotenone; type: cell-based, rat; conditions: 0.1 μM and 1 μM rotenone, RNA collected at 24 hours
Experimental: Real-time quantitative reverse transcription-PCR analysis. All the surgical procedures were performed according to National Institute of Health guidelines for care and use of laboratory animals at Washington University. For the expression analysis following nerve injury, the sciatic nerves of a C57BL/6 mouse was transected and L4 to L5. DRGs were collected at indicated time points and pooled to extract RNA. […] Total RNAs from pooled tissue sources or DRG explant cultures were prepared. First-strand cDNA templates were prepared from 1 μg of each RNA using standard methods. Two independent cDNA syntheses were performed for each RNA sample. Quantitative reverse transcription (RT)-PCR was performed by monitoring in real-time the increase in fluorescence of the SYBR-GREEN dye on a TaqMan 7700 Sequence Detection System (Applied Biosystems).
To investigate the expression of mammalian NAD biosynthetic enzymes in the nervous system, we performed quantitative RT-PCR using RNA from mouse brain, retina, spinal code, and DRG at age of E14, P0, P7, P14 and P21. […] We also analyzed expression of NAD synthetic enzymes during the axonal degeneration caused by neurotoxin in cultured rat DRG neuron. […] FIG. 6B illustrates neurite degeneration introduced by incubation DRG in 1 or 0.1 μM rotenone for indicated time and NAD synthesis enzyme mRNA levels were determined by qRT-PCR as described in the text.

Compound | neurofilament immunoreactivity of axotomized optic nerve, of non-axotomized optic nerve ([1]; 5 μl of 100 mM intravitreal) | protection against axonal degeneration (summary statement of the in vitro study) (DRG explant neurons) | increase in intact neurites at 48 hours after transection (DRG explant neurons) | neurite protection from degeneration (DRG explant neurons) | also measured
NC(=O)c1cccc(N)c1 [3AB, 3-aminobenzamide, reference compound] |  |  |  |  | effect on NAD-dependent axonal protection (NDAP) (DRG explant neurons): had no effect on NDAP
NC(=O)c1ccc[n+]([C@@H]2O[C@H](COP(=O)([O-])OP(=O)(O)OC[C@H]3O[C@@H](n4cnc5c(N)ncnc54)[C@H](O)[C@@H]3O)[C@@H](O)[C@H]2O)c1 [NAD, β-nicotinamide adenine dinucleotide] | 78±22% |  |  |  | neurofilament immunoreactivity of axotomized optic nerve, of non-axotomized optic nerve ([1]; 5 μl of 1 M intravitreal): 77±27%
NC(=O)c1ccc[n+]([C@@H]2O[C@H](COP(=O)([O-])O)[C@@H](O)[C@H]2O)c1 [NMN, nicotinamide mononucleotide] | 60±25% | have axon saving activity | comparable increase in intact neurites | successfully saved neurites from degeneration; also recorded: enough to protect axon from degeneration | neurite protection relative to exogenously applied NAD (quantitative analysis) (DRG explant neurons; 1 mM for 24 hours before transection): neurite protection to an extent similar to that achieved by exogenously applied NAD; protection against axonal degeneration (summary statement of the in vitro study) (DRG explant neurons; listed as nicotinamide mononucleotide): protected against axonal degeneration to a similar extent as did NAD
O=C(O)c1cccnc1 [Na, nicotinic acid] |  | did not |  | failed to save neurites | 
Nc1ncnc2c1ncn2[C@@H]1O[C@H](COP(=O)(O)OP(=O)(O)OC[C@H]2O[C@@H]([n+]3cccc(C(=O)O)c3)[C@H](O)[C@@H]2O)[C@@H](O)[C@H]1O [NaAD, nicotinic acid adenine dinucleotide] |  |  | less increase in intact neurites at 48 hours compared with NAD | slight protection | 
O=C(O)c1ccc[n+]([C@@H]2O[C@H](COP(=O)(O)O)[C@@H](O)[C@H]2O)c1 [NaMN, nicotinate mononucleotide] |  | protected against axonal degeneration to a similar extent as did NAD | comparable increase in intact neurites | saved neurites as well as NAD | 
NC(=O)c1cccnc1 [Nam, nicotinamide] | did not show any difference from the control animals | does not |  | had no effect | protection against axonal degeneration (summary statement of the in vitro study) (DRG explant neurons; listed as nicotinamide): did not
NC(=O)c1ccc[n+]([C@@H]2O[C@H](CO)[C@@H](O)[C@H]2O)c1 [NmR, nicotinamide riboside] | 72±19% | have axon saving activity | comparable increase in intact neurites | saved neurites as well as NAD; also recorded: enough to protect axon from degeneration | protection against axonal degeneration (summary statement of the in vitro study) (DRG explant neurons; listed as nicotinamide riboside): protected against axonal degeneration to a similar extent as did NAD
CC(NC(=O)c1ccccc1/N=C/c1c(O)ccc2ccccc12)c1ccccc1 (stereo not shown) [Sirtinol, reference compound] |  |  |  |  | effect on NAD-dependent axonal protection (NDAP) (DRG explant neurons): effectively blocked NDAP
Oc1ccc(C=Cc2cc(O)cc(O)c2)cc1 [resveratrol, reference compound] |  |  |  |  | axonal degradation after axotomy (DRG explant neurons; 10~100 μM, treated prior to axotomy): decrease in axonal degradation that was comparable to that obtained using NAD
C=C(C)[C@H]1Cc2c(ccc3c2O[C@@H]2COc4cc(OC)c(OC)cc4[C@@H]2C3=O)O1 [rotenone] |  |  |  |  | expression of Nrk2 (mRNA) (Nrk2): more than 6 folds
